Data: article PMC10546487 (Journal of medicinal chemistry, 2022)

Assays:
MOR = MOR (Mus musculus, UniProt P42866); experiment: Radioligand competition binding assay, MOR; settings: ratio of Ki values DOR/MOR
DOR = DOR (Mus musculus, UniProt P32300); experiment: Radioligand competition binding assay, DOR
DOR, sequence (P32300 whole entry): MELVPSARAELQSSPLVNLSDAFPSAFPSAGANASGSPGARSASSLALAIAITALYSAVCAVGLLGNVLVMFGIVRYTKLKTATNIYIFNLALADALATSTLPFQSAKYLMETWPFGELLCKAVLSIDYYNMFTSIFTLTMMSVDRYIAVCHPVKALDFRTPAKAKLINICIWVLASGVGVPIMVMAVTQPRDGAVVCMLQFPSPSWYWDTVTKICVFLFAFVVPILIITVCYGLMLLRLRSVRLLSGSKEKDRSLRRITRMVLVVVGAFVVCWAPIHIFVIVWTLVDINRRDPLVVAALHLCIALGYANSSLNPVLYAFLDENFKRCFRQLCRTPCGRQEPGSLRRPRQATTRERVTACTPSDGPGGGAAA

MOR, sequence (P42866 whole entry): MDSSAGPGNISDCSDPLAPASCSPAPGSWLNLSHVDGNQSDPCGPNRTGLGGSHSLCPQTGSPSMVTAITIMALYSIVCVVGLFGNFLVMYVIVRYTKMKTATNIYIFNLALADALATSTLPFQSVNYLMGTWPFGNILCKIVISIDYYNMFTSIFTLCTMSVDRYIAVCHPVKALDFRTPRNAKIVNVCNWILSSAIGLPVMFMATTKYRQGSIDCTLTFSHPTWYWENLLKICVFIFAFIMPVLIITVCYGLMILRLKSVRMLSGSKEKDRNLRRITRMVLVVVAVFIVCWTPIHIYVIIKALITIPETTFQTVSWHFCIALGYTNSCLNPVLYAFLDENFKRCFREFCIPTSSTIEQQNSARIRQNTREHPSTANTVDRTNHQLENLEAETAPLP

Question: For `Cl.O=Cc1c[nH]c2c(C(=O)N[C@@H]3CC[C@@]4(O)[C@H]5Cc6ccc(O)c7c6[C@@]4(CCN5CC4CC4)[C@H]3O7)cccc12` [Compound 10, 17-Cyclopropylmethyl-3,14β-dihydroxy-4,5α-epoxy-6β-(3-formyl-indole-7-carboxamido)morphinan], which “Selectivity δ/μ” value (MOR) is on record?
Answer: Its value is 35.1.

Question: Which results are given for `N#Cc1cc2cccc(C(=O)N[C@H]3CC[C@@]4(O)[C@H]5Cc6ccc(O)c7c6[C@@]4(CCN5CC4CC4)[C@H]3O7)c2[nH]1` [Compound 20, 17-Cyclopropylmethyl-3,14β-dihydroxy-4,5α-epoxy-6α-(2-cyano-indole-7-carboxamido)morphinan]?
Answer: Selectivity δ/μ (MOR): 12.2; Ki (DOR): 10.7 ± 0.93 nM

Question: Which results are given for `O=C(N[C@H]1CC[C@@]2(O)[C@H]3Cc4ccc(O)c5c4[C@@]2(CCN3CC2CC2)[C@H]1O5)c1cccc2cc(-c3ccccc3)[nH]c12` [Compound 22, 17-Cyclopropylmethyl-3,14β-dihydroxy-4,5α-epoxy-6α-(2-phenyl-indole-7-carboxamido)morphinan]?
Answer: Selectivity δ/μ (MOR): 2.2; Ki (DOR): 5.36 ± 1 nM

Question: How did the Ki (DOR) turn out when `O=C(N[C@H]1CC[C@@]2(O)[C@H]3Cc4ccc(O)c5c4[C@@]2(CCN3CC2CC2)[C@H]1O5)c1cccc2c(Br)c[nH]c12` [Compound 23, 17-Cyclopropylmethyl-3,14β-dihydroxy-4,5α-epoxy-6α-(3-bromo-indole-7-carboxamido)morphinan] was run?
Answer: Its Ki is 19.2 ± 3.99 nM.

Question: For `O=C(N[C@H]1CC[C@@]2(O)[C@H]3Cc4ccc(O)c5c4[C@@]2(CCN3CC2CC2)[C@H]1O5)c1cccc2c(Cl)c[nH]c12` [Compound 24, 17-Cyclopropylmethyl-3,14β-dihydroxy-4,5α-epoxy-6α-(3-chloro-indole-7-carboxamido)morphinan], which Ki (DOR) is on record?
Answer: The Ki was 37.1 ± 9.46 nM.

Question: For `O=Cc1c[nH]c2c(C(=O)N[C@H]3CC[C@@]4(O)[C@H]5Cc6ccc(O)c7c6[C@@]4(CCN5CC4CC4)[C@H]3O7)cccc12` [Compound 27, 17-Cyclopropylmethyl-3,14β-dihydroxy-4,5α-epoxy-6α-(3-formyl-indole-7-carboxamido)morphinan], which Ki (DOR) is on record?
Answer: Its Ki is 11.9 ± 1.91 nM.

Question: With `CC(=O)Nc1c[nH]c2c(C(=O)N[C@H]3CC[C@@]4(O)[C@H]5Cc6ccc(O)c7c6[C@@]4(CCN5CC4CC4)[C@H]3O7)cccc12` [Compound 29, 17-Cyclopropylmethyl-3,14β-dihydroxy-4,5α-epoxy-6α-(3-acet-amido-indole-7-carboxamido)morphinan] as the molecule, how does the Ki (DOR) read?
Answer: The Ki was 5.19 ± 0.35 nM.

Question: `CC(C)c1c[nH]c2c(C(=O)N[C@H]3CC[C@@]4(O)[C@H]5Cc6ccc(O)c7c6[C@@]4(CCN5CC4CC4)[C@H]3O7)cccc12` [Compound 31, 17-Cyclopropylmethyl-3,14β-dihydroxy-4,5α-epoxy-6α-(3-iso-propyl-indole-7-carboxamido)morphinan] was tested. Which Ki (DOR) did it give?
Answer: Its Ki is 25.9 ± 5.69 nM.

Question: For `O=C(N[C@H]1CC[C@@]2(O)[C@H]3Cc4ccc(O)c5c4[C@@]2(CCN3CC2CC2)[C@H]1O5)c1cccc2c(C3CCCC3)c[nH]c12` [Compound 32, 17-Cyclopropylmethyl-3,14β-dihydroxy-4,5α-epoxy-6α-(3-cyclo-pentyl-indole-7-carboxamido)morphinan], which Ki (DOR) is on record?
Answer: The Ki was 28.2 ± 5.4 nM.

Question: How did the Ki (DOR) turn out when `O=C(N[C@H]1CC[C@@]2(O)[C@H]3Cc4ccc(O)c5c4[C@@]2(CCN3CC2CC2)[C@H]1O5)c1cccc2c(C3CCCCC3)c[nH]c12` [Compound 33, 17-Cyclopropylmethyl-3,14β-dihydroxy-4,5α-epoxy-6α-(3-cyclo-hexyl-indole-7-carboxamido)morphinan] was run?
Answer: Its Ki is 18.6 ± 7.24 nM.

Question: How did the Ki (DOR) turn out when `O=C(N[C@H]1CC[C@@]2(O)[C@H]3Cc4ccc(O)c5c4[C@@]2(CCN3CC2CC2)[C@H]1O5)c1cccc2c(-c3ccccc3)c[nH]c12` [Compound 34, 17-Cyclopropylmethyl-3,14β-dihydroxy-4,5α-epoxy-6α-(3-phenyl-indole-7-carboxamido)morphinan] was run?
Answer: The Ki was 15 ± 2.71 nM.
